# Marks after values point to notes of the source that are not given here.
# Tested on: lactating dairy cattle
# Test: Combined analysis of Wisconsin and New York Studies
# Type: in vivo
# Design: DMI / NEL: unit not given here
# Conditions: for Milk protein percentage: all treatments
# Procedure: The instant example provides the combined analysis of data from the two studies (Wisconsin Study and New York Study). The two studies were combined statistically to explore effects on milk production efficiency and other variables associated with efficiency. By effectively doubling pen numbers an increase in power of the analysis was provided. Analysis of these combined datasets was performed in various ways, with the inclusion of either weekly milk yield averages or sample day milk yields to calculate milk component yields, component corrected yields, and feed efficiency. Further, the combined dataset was analyzed using data collected from all experimental weeks as well as the exclusion of data from the first three weeks of experimental treatment feeding. This was done to exclude any shifts in response variables while the rumen environment was adapting to the treatment provided. Materials & Methods: All data from both experimental locations were combined and statistically analyzed as a longitudinal experiment design through SAS version 9.4 (SAS Institute Inc., Cary, N.C.). Experimental response variables, excluding body condition score (BCS), were analyzed using PROC MIXED and […] statements to compare treatment means using the following model: γijklm=μ+[…] Where γijklm=an individual observation of the response variable analyzed, Ti=the i^th dietary treatment, Wj=the j^th experimental week, TWij=the interaction of the i^th treatment with the j^th experimental week, Lk=the k^th experimental location, Pl(i*k)=the 1th pen within the i^th treatment and k^th experimental location, WPjl(i*k)=the interaction of the j^th experimental week with the 1th pen within the i^th treatment and k^th experimental location, Cm(l*i*k)=the m^th cow within the 1th pen, the i^th treatment and k^th experimental location, BXmlik=the covariate observation obtained after three weeks of feeding a common diet to all treatment groups, and ∈ijklmn=the random error of the m^th cow within the 1th pen, the i^th treatment and the k^th location. […] Data were analyzed with pen as the experimental unit and cow as the observational unit. Dietary treatment and experimental week were considered fixed effects, whereas location, pen and cow were considered random effects. An auto-regressive covariance structure [AR(1)] was used to analyze repeated measurements (week of experimental period) with cow nested in pen within treatment as the subject. For pen level observations (DMI, production efficiency and NEL measurements), the main effect of cattle was dropped from the statistical model above. Further, pen was used as the subject of the auto-regressive repeated analysis. Degrees of freedom were adjusted using the Kenward-Roger option and multiple treatment […] comparisons were adjusted by the Tukey method. Non-parametric analysis of BCS measurements, via PROC NPAR1WAY, was performed to evaluate differences in dietary treatments at both the initiation of the experiment and during the final week of the experiments. Statistical significance was reported as P≤0.05 and tendencies as 0.05<P≤0.10. […] This analysis, deemed the 'post-acclimation' analysis, removed the first three experimental weeks of data from the experimental dataset, leaving only the fourth to ninth weeks for statistical interpretation. The statistical model was identical to the previously described approach and all data, except for body weight and NEL (due to missing data), were reanalyzed for interpretation.
# [1] = 11 g/ton, experimental weeks 4 through 9
# [2] = 11 g/ton, sample day, entire experiment
# [3] = 11 g/ton, sample day, weeks 4 through 9
# [4] = 11 g/ton, weekly averaged, entire experiment
# [5] = 11 g/ton, weekly averaged, weeks 4 through 9
# [6] = 14.5 g/ton, experimental weeks 4 through 9
# [7] = 14.5 g/ton, sample day, entire experiment
# [8] = 14.5 g/ton, sample day, weeks 4 through 9
# [9] = 14.5 g/ton, weekly averaged, entire experiment
# [10] = 14.5 g/ton, weekly averaged, weeks 4 through 9
# [11] = 18 g/ton, experimental weeks 4 through 9
# [12] = 18 g/ton, sample day, entire experiment
# [13] = 18 g/ton, sample day, weeks 4 through 9
# [14] = 18 g/ton, weekly averaged, entire experiment
# [15] = 18 g/ton, weekly averaged, weeks 4 through 9
structure (smiles),measurement,setting,value
CC[C@@]1([C@@H]2O[C@@H]([C@H]3O[C@@](O)(CO)[C@H](C)C[C@@H]3C)C[C@@H]2C)CC[C@H]([C@]2(C)CC[C@]3(C[C@H](O)[C@@H](C)[C@@H]([C@@H](C)[C@@H](OC)[C@H](C)C(=O)O)O3)O2)O1 [monensin],DMI,"11 g/ton, entire experiment",59.7
same,MUN,"11 g/ton, entire experiment",11.0^b mg/dL
same,"Milk Fat, %","11 g/ton, entire experiment",4.45%
same,Milk Fatty Acid: De novo,"11 g/ton, entire experiment",1.08^b g/100 g
same,Milk Fatty Acid: Mixed,"11 g/ton, entire experiment",1.79 g/100 g
same,Milk Fatty Acid: Performed,"11 g/ton, entire experiment",1.32 g/100 g
same,Milk Fatty Acid: Total FA,"11 g/ton, entire experiment",4.20 g/100 g
same,"Milk Lactose, %","11 g/ton, entire experiment",4.66%
same,"Milk Protein, %","11 g/ton, entire experiment",3.29%
same,DMI,[1],59.5
same,MUN,[1],11.1^by mg/dL
same,"Milk Fat, %",[1],4.46%
same,Milk Fatty Acid: Mixed,[1],1.79^ab g/100 g
same,Milk Fatty Acid: Performed,[1],1.33 g/100 g
same,Milk Fatty Acid: Total FA,[1],4.21 g/100 g
same,"Milk Lactose, %",[1],4.65%
same,"Milk Protein, %",[1],3.33%
same,NEL,"11 g/ton, sample day milk yield, entire experiment",1.53
same,Day of Sample Milk Yield,[2],92.0 lb
same,ECM,[2],100.8^a lb
same,ECM:Feed,[2],1.72^a
same,FCM,[2],95.3^a lb
same,FCM:Feed,[2],1.63^a
same,Fat yield,[2],4.05^xy lb
same,Lactose yield,[2],4.30 lb
same,Milk:Feed,[2],1.56^xy
same,Protein yield,[2],3.02 lb
same,SCM,[2],95.2^xy lb
same,SCM:Feed,[2],1.59^ab
same,Day of Sample Milk Yield,[3],90.6 lb
same,ECM,[3],102.0^ab lb
same,ECM:Feed,[3],1.71^abx
same,FCM,[3],96.2^ab lb
same,FCM:Feed,[3],1.61^b
same,Fat yield,[3],3.98^ab lb
same,Lactose yield,[3],4.23 lb
same,Milk:Feed,[3],1.54^xy
same,Protein yield,[3],3.01 lb
same,SCM,[3],93.9^ab lb
same,SCM:Feed,[3],1.57^abx
same,NEL,"11 g/ton, weekly averaged milk yield, entire experiment",1.53
same,ECM,[4],102.8 lb
same,ECM:Feed,[4],1.73^aby
same,FCM,[4],97.2 lb
same,FCM:Feed,[4],1.64^b
same,Fat yield,[4],4.03 lb
same,Lactose yield,[4],4.27 lb
same,Milk Yield,[4],91.5 lb
same,Milk:Feed,[4],1.57
same,Protein yield,[4],3.00 lb
same,SCM,[4],94.7^xy lb
same,SCM:Feed,[4],1.59^by
same,ECM,[5],101.6^y lb
same,ECM:Feed,[5],1.72^b
same,FCM,[5],95.9^y lb
same,FCM:Feed,[5],1.62^b
same,Fat yield,[5],3.97^ab lb
same,Lactose yield,[5],4.19 lb
same,Milk Yield,[5],90.4 lb
same,Milk:Feed,[5],1.55
same,Protein yield,[5],2.99 lb
same,SCM,[5],93.5^aby lb
same,SCM:Feed,[5],1.58^b
same,DMI,"14.5 g/ton, entire experiment",59.2
same,"Milk Fat, %","14.5 g/ton, entire experiment",4.47%
same,Milk Fatty Acid: De novo,"14.5 g/ton, entire experiment",1.08^b g/100 g
same,Milk Fatty Acid: Mixed,"14.5 g/ton, entire experiment",1.80 g/100 g
same,Milk Fatty Acid: Performed,"14.5 g/ton, entire experiment",1.31 g/100 g
same,Milk Fatty Acid: Total FA,"14.5 g/ton, entire experiment",4.20 g/100 g
same,"Milk Lactose, %","14.5 g/ton, entire experiment",4.67%
same,"Milk Protein, %","14.5 g/ton, entire experiment",3.30%
same,DMI,[6],59.5
same,MUN,[6],11.0^b mg/dL
same,"Milk Fat, %",[6],4.50%
same,Milk Fatty Acid: Mixed,[6],1.82^b g/100 g
same,Milk Fatty Acid: Performed,[6],1.32 g/100 g
same,Milk Fatty Acid: Total FA,[6],4.23 g/100 g
same,"Milk Lactose, %",[6],4.66%
same,"Milk Protein, %",[6],3.33%
same,NEL,"14.5 g/ton, sample day milk yield, entire experiment",1.55
same,Day of Sample Milk Yield,[7],92.6 lb
same,ECM,[7],104.1^b lb
same,ECM:Feed,[7],1.77^b
same,FCM,[7],98.6^b lb
same,FCM:Feed,[7],1.68^b
same,Fat yield,[7],4.09^y lb
same,Lactose yield,[7],4.34 lb
same,Milk:Feed,[7],1.61^y
same,Protein yield,[7],3.03 lb
same,SCM,[7],96.0^y lb
same,SCM:Feed,[7],1.64^b
same,Day of Sample Milk Yield,[8],91.3 lb
same,ECM,[8],103.3^b lb
same,ECM:Feed,[8],1.75^by
same,FCM,[8],97.6^b lb
same,FCM:Feed,[8],1.66^c
same,Fat yield,[8],4.06^b lb
same,Lactose yield,[8],4.27 lb
same,Milk:Feed,[8],1.57^y
same,Protein yield,[8],3.02 lb
same,SCM,[8],95.2^b lb
same,SCM:Feed,[8],1.62^by
same,NEL,"14.5 g/ton, weekly averaged milk yield, entire experiment",1.54
same,ECM,[9],102.4 lb
same,ECM:Feed,[9],1.74^b
same,FCM,[9],96.9 lb
same,FCM:Feed,[9],1.65^b
same,Fat yield,[9],4.03 lb
same,Lactose yield,[9],4.26 lb
same,Milk Yield,[9],91.0 lb
same,Milk:Feed,[9],1.57
same,Protein yield,[9],2.98 lb
same,SCM,[9],94.5^y lb
same,SCM:Feed,[9],1.61^b
same,ECM,[10],101.7^y lb
same,ECM:Feed,[10],1.72^b
same,FCM,[10],96.1^y lb
same,FCM:Feed,[10],1.63^b
same,Fat yield,[10],4.00^b lb
same,Lactose yield,[10],4.19 lb
same,Milk Yield,[10],89.8 lb
same,Milk:Feed,[10],1.54
same,Protein yield,[10],2.97 lb
same,SCM,[10],93.7^b lb
same,SCM:Feed,[10],1.58^b
same,Sample day milk yield difference from the control treatment,"18 g/ton treatment, post-acclimation data",1.5 pounds
same,DMI,"18 g/ton, entire experiment",59.7
same,MUN,"18 g/ton, entire experiment",10.4^ab mg/dL
same,"Milk Fat, %","18 g/ton, entire experiment",4.42%
same,Milk Fatty Acid: De novo,"18 g/ton, entire experiment",1.06^ab g/100 g
same,Milk Fatty Acid: Mixed,"18 g/ton, entire experiment",1.77 g/100 g
same,Milk Fatty Acid: Performed,"18 g/ton, entire experiment",1.30 g/100 g
same,Milk Fatty Acid: Total FA,"18 g/ton, entire experiment",4.13 g/100 g
same,"Milk Lactose, %","18 g/ton, entire experiment",4.66%
same,"Milk Protein, %","18 g/ton, entire experiment",3.29%
same,DMI,[11],60.2
same,MUN,[11],10.4^abx mg/dL
same,"Milk Fat, %",[11],4.43%
same,Milk Fatty Acid: De novo,[11],1.07^ab g/100 g
same,Milk Fatty Acid: Mixed,[11],1.78^ab g/100 g
same,Milk Fatty Acid: Performed,[11],1.32 g/100 g
same,Milk Fatty Acid: Total FA,[11],4.16 g/100 g
same,"Milk Lactose, %",[11],4.66%
same,"Milk Protein, %",[11],3.32%
same,NEL,"18 g/ton, sample day milk yield, entire experiment",2.39
same,Day of Sample Milk Yield,[12],91.6 lb
same,ECM,[12],102.2^ab lb
same,ECM:Feed,[12],1.71^a
same,FCM,[12],96.7^ab lb
same,FCM:Feed,[12],1.61^a
same,Fat yield,[12],3.99^xy lb
same,Lactose yield,[12],4.27 lb
same,Milk:Feed,[12],1.55^x
same,Protein yield,[12],2.98 lb
same,SCM,[12],94.1^xy lb
same,SCM:Feed,[12],.157^a
same,Day of Sample Milk Yield,[13],90.6 lb
same,ECM,[13],101.4^ab lb
same,ECM:Feed,[13],1.67^a
same,FCM,[13],95.8^ab lb
same,FCM:Feed,[13],1.58^ab
same,Fat yield,[13],3.96^ab lb
same,Lactose yield,[13],4.22 lb
same,Milk:Feed,[13],1.51^x
same,Protein yield,[13],2.97 lb
same,SCM,[13],93.4^ab lb
same,SCM:Feed,[13],1.54^a
same,NEL,"18 g/ton, weekly averaged milk yield, entire experiment",2.38
same,ECM,[14],100.9 lb
same,ECM:Feed,[14],1.69^ax
same,FCM,[14],95.5 lb
same,FCM:Feed,[14],1.60^a
same,Fat yield,[14],3.95 lb
same,Lactose yield,[14],4.22 lb
same,Milk Yield,[14],90.4 lb
same,Milk:Feed,[14],1.53
same,Protein yield,[14],2.95 lb
same,SCM,[14],93.1^x lb
same,SCM:Feed,[14],1.56^a
same,ECM,[15],100.2^xy lb
same,ECM:Feed,[15],1.66^a
same,FCM,[15],94.6^xy lb
same,FCM:Feed,[15],1.56^a
same,Fat yield,[15],3.91^ab lb
same,Lactose yield,[15],4.16 lb
same,Milk Yield,[15],89.4 lb
same,Milk:Feed,[15],1.50
same,Protein yield,[15],2.94 lb
same,SCM,[15],92.3^ab lb
same,SCM:Feed,[15],1.53^a
same,Milk protein percentage,entire study,3.29%
same,Milk protein percentage,post-acclimation period,3.32%

# — US20230255927A1 (ELANCO TIERGESUNDHEIT AG, priority 2022, published 2023)
